Target: T1, chimeric human H3 receptor (Homo sapiens, UniProt Q9Y5N1)
T1 construct: made in house; host or cells: Sf9 insect cells (baculovirus); P2 membrane preparation
Experiment: Chimeric human H3 receptor GTP binding assay (agonist-stimulated GTP-gamma35S binding, Example 7)
Assay type: biochemical
Procedure, shortened: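 Sf9 membranes co-expressing chimeric human H3 receptor and heterotrimeric G-protein, 35 μg/tube, in pH 7.4 Tris buffer with 10 μM GDP. Test compounds (10^−10–10^−6 M) competed against 1 μM histamine, […] GTP-gamma35S, 60 min at room temperature. Filter-bound radioactivity counted; IC50 converted to Ki by Cheng-Prusoff. Agonism/inverse agonism tested without histamine (EC50).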

[1] = Table II, "*" = Ki in assay of Example 7 less than 1 micromolar
[2] = assay of Example 7, "*" in Ki of Table II

T1 sequence (Q9Y5N1 with tags, fused parts or gaps): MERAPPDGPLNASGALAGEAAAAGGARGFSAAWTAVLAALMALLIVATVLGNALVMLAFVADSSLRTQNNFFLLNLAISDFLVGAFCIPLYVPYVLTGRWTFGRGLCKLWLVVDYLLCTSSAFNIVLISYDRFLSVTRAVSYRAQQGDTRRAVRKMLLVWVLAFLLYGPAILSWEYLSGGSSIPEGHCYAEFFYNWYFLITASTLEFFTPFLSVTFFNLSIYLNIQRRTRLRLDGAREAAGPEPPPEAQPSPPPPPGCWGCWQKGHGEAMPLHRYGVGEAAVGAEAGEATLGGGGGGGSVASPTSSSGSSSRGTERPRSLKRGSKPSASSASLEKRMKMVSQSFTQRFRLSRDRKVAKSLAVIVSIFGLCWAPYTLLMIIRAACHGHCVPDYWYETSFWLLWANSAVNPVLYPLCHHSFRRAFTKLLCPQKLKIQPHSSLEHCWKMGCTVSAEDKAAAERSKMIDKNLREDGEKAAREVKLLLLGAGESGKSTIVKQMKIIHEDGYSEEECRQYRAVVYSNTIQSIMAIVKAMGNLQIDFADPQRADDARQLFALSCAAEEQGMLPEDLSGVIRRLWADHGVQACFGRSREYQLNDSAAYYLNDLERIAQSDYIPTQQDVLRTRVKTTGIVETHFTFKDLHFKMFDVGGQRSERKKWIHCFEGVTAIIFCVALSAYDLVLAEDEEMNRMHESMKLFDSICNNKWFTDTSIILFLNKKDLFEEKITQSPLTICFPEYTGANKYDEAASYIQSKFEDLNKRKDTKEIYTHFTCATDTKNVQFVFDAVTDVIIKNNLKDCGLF

Ki [1] [nM] | Ki [2] [nM] | SMILES
< 1000 |  | O=C(CN1CCc2nn(-c3cncc(C4CC4)n3)cc2C1)N1CCN(C2CCC2)CC1 [Compound 272, 5-[2-(4-cyclobutylpiperazin-1-yl)-2-oxoethyl]-2-(6-cyclopropylpyrazin-2-yl)-4,5,6,7-tetrahydro-2H-pyrazolo[4,3-c]pyridine]
< 1000 |  | Cc1c2c(nn1-c1ccc(Br)cn1)CCN(CC(=O)N1CCN(C3CCC3)CC1)C2 [Compound 273, 2-(5-bromopyridin-2-yl)-5-[2-(4-cyclobutylpiperazin-1-yl)-2-oxoethyl]-3-methyl-4,5,6,7-tetrahydro-2H-pyrazolo[4,3-c]pyridine]
< 1000 |  | Cc1c2c(nn1-c1ccc(C#N)cn1)CCN(CC(=O)N1CCN(C3CCC3)CC1)C2 [Compound 274, 6-{5-[2-(4-cyclobutylpiperazin-1-yl)-2-oxoethyl]-3-methyl-4,5,6,7-tetrahydro-2H-pyrazolo[4,3-c]pyridin-2-yl}nicotinonitrile]
< 1000 |  | O=C(CN1CCc2nc(-n3cccn3)ncc2C1)N1CCN(C2CCC2)CC1 [Compound 275, 6-[2-(4-cyclobutylpiperazin-1-yl)-2-oxoethyl]-2-(1H-pyrazol-1-yl)-5,6,7,8-tetrahydropyrido[4,3-d]pyrimidine]
< 1000 |  | O=C(CN1CCc2nc(C3CC3)ncc2C1)N1CCN(C2CCC2)CC1 [Compound 276, 6-[2-(4-cyclobutylpiperazin-1-yl)-2-oxoethyl]-2-cyclopropyl-5,6,7,8-tetrahydropyrido[4,3-d]pyrimidine]
< 1000 |  | CC(C)(C)c1ncc2c(n1)CCN(CC(=O)N1CCN(C3CCC3)CC1)C2 [Compound 277, 2-tert-butyl-6-[2-(4-cyclobutylpiperazin-1-yl)-2-oxoethyl]-5,6,7,8-tetrahydropyrido[4,3-d]pyrimidine]
< 1000 |  | Cn1c(-c2ccc3c(c2)CCN(CC(=O)N2CCN(C4CCC4)CC2)C3)cccc1=O [Compound 278, 6-{2-[2-(4-cyclobutylpiperazin-1-yl)-2-oxoethyl]-1,2,3,4-tetrahydroisoquinolin-6-yl}-1-methylpyridin-2(1H)-one]
< 1000 |  | O=C(CN1CCc2nc(-c3cccnn3)sc2C1)N1CCN(C2CCC2)CC1 [Compound 279, 5-[2-(4-cyclobutylpiperazin-1-yl)-2-oxoethyl]-2-pyridazin-3-yl-4,5,6,7-tetrahydro[1,3]thiazolo [5,4-c]pyridine]
< 1000 |  | CCn1cc(-c2ccc3c(c2)CCN(CC(=O)N2CCN(C4CCC4)CC2)C3)ccc1=O [Compound 280, 5-{2-[2-(4-cyclobutylpiperazin-1-yl)-2-oxoethyl]-1,2,3,4-tetrahydroisoquinolin-6-yl}-1-ethylpyridin-2(1H)-one]
< 1000 |  | CCCn1cc(-c2ccc3c(c2)CCN(CC(=O)N2CCN(C4CCC4)CC2)C3)ccc1=O [Compound 281, 5-{2-[2-(4-cyclobutylpiperazin-1-yl)-2-oxoethyl]-1,2,3,4-tetrahydroisoquinolin-6-yl}-1-propylpyridin-2(1H)-one]
 | < 1000 | CC(C)n1cc(-c2ccc3c(c2)CCN(CC(=O)N2CCN(C4CCC4)CC2)C3)ccc1=O [Compound 282, 5-{2-[2-(4-cyclobutylpiperazin-1-yl)-2-oxoethyl]-1,2,3,4-tetrahydroisoquinolin-6-yl}-1-isopropylpyridin-2(1H)-one]
 | < 1000 | O=C(CN1CCc2cc(-c3ccc(=O)n(CC(F)(F)F)c3)ccc2C1)N1CCN(C2CCC2)CC1 [Compound 283, 5-{2-[2-(4-cyclobutylpiperazin-1-yl)-2-oxoethyl]-1,2,3,4-tetrahydroisoquinolin-6-yl}-1-(2,2,2-trifluoroethyl)pyridin-2(1H)-one]
 | < 1000 | Cc1ccc(-n2ncc3c2CN(CC(=O)N2CCN(C4CCC4)CC2)CC3)nn1 [Compound 284, 6-[2-(4-cyclobutylpiperazin-1-yl)-2-oxoethyl]-1-(6-methylpyridazin-3-yl)-4,5,6,7-tetrahydro-1H-pyrazolo[3,4-c]pyridine]
 | < 1000 | O=C(CN1CCc2c(cnn2-c2cccnn2)C1)N1CCN(C2CCC2)CC1 [Compound 285, 5-[2-(4-cyclobutylpiperazin-1-yl)-2-oxoethyl]-1-pyridazin-3-yl-4,5,6,7-tetrahydro-1H-pyrazolo[4,3-c]pyridine]
 | < 1000 | COCc1ncc2c(n1)CCN(CC(=O)N1CCN(C3CCC3)CC1)C2 [Compound 286, 6-[2-(4-cyclobutylpiperazin-1-yl)-2-oxoethyl]-2-(methoxymethyl)-5,6,7,8-tetrahydropyrido[4,3-d]pyrimidine]
 | < 1000 | O=C(CN1CCc2nn(-c3ncc(Br)cn3)cc2C1)N1CCN(C2CCC2)CC1 [Compound 287, 2-(5-bromopyrimidin-2-yl)-5-[2-(4-cyclobutylpiperazin-1-yl)-2-oxoethyl]-4,5,6,7-tetrahydro-2H-pyrazolo[4,3-c]pyridine]
 | < 1000 | Cc1ccc(-n2ncc3c2CCN(CC(=O)N2CCN(C4CCC4)CC2)C3)nn1 [Compound 288, 5-[2-(4-cyclobutylpiperazin-1-yl)-2-oxoethyl]-1-(6-methylpyridazin-3-yl)-4,5,6,7-tetrahydro-1H-pyrazolo[4,3-c]pyridine]

Ki [1] [nM] | Ki [2] [nM] | SMILES
 | < 1000 | Cc1cnc(-n2cc3c(n2)CCN(CC(=O)N2CCN(C4CCC4)CC2)C3)nc1 [Compound 289, 5-[2-(4-cyclobutylpiperazin-1-yl)-2-oxoethyl]-2-(5-methylpyrimidin-2-yl)-4,5,6,7-tetrahydro-2H-pyrazolo[4,3-c]pyridine]
 | < 1000 | COc1ccc(-n2ncc3c2CCN(CC(=O)N2CCN(C4CCC4)CC2)C3)nn1 [Compound 290, 5-[2-(4-cyclobutylpiperazin-1-yl)-2-oxoethyl]-1-(6-methoxypyridazin-3-yl)-4,5,6,7-tetrahydro-1H-pyrazolo[4,3-c]pyridine]
 | < 1000 | O=C(CN1CCc2c(cnn2-c2ccc(O)nn2)C1)N1CCN(C2CCC2)CC1 [Compound 291, 6-{5-[2-(4-cyclobutylpiperazin-1-yl)-2-oxoethyl]-4,5,6,7-tetrahydro-1H-pyrazolo[4,3-c]pyridin-1-yl}pyridazin-3-ol]
 | < 1000 | O=C(CN1CCc2nc(C(F)(F)F)ncc2C1)N1CCN(C2CCC2)CC1 [Compound 292, 6-[2-(4-cyclobutylpiperazin-1-yl)-2-oxoethyl]-2-(trifluoromethyl)-5,6,7,8-tetrahydropyrido[4,3-d]pyrimidine]
 | < 1000 | Cn1cc2c(n1)CCN(CC(=O)N1CCN(C3CCC3)CC1)C2 [Compound 293, 5-[2-(4-cyclobutylpiperazin-1-yl)-2-oxoethyl]-2-methyl-4,5,6,7-tetrahydro-2H-pyrazolo[4,3-c]pyridine]
 | < 1000 | O=C(CN1CCc2nc(-c3ccccc3)sc2C1)N1CCN(C2CCC2)CC1 [Compound 294, 5-[2-(4-cyclobutylpiperazin-1-yl)-2-oxoethyl]-2-phenyl-4,5,6,7-tetrahydro[1,3]thiazolo [5,4-c]pyridine]
 | < 1000 | O=C(CN1CCc2nc(-c3cccc(Cl)c3)sc2C1)N1CCN(C2CCC2)CC1 [Compound 295, 2-(3-chlorophenyl)-5-[2-(4-cyclobutylpiperazin-1-yl)-2-oxoethyl]-4,5,6,7-tetrahydro[1,3]thiazolo [5,4-c]pyridine]
 | < 1000 | O=C(CN1CCc2nc(-c3ccc(Cl)cc3)sc2C1)N1CCN(C2CCC2)CC1 [Compound 296, 2-(4-chlorophenyl)-5-[2-(4-cyclobutylpiperazin-1-yl)-2-oxoethyl]-4,5,6,7-tetrahydro[1,3]thiazolo [5,4-c]pyridine]
 | < 1000 | O=C(CN1CCc2nc(-c3ccc(F)cc3)sc2C1)N1CCN(C2CCC2)CC1 [Compound 297, 5-[2-(4-cyclobutylpiperazin-1-yl)-2-oxoethyl]-2-(4-fluorophenyl)-4,5,6,7-tetrahydro[1,3]thiazolo [5,4-c]pyridine]
 | < 1000 | O=C(CN1CCc2nc(-c3cccc(F)c3)sc2C1)N1CCN(C2CCC2)CC1 [Compound 298, 5-[2-(4-cyclobutylpiperazin-1-yl)-2-oxoethyl]-2-(3-fluorophenyl)-4,5,6,7-tetrahydro[1,3]thiazolo [5,4-c]pyridine]
 | < 1000 | O=C(CN1CCc2nc(-c3ccccc3F)sc2C1)N1CCN(C2CCC2)CC1 [Compound 299, 5-[2-(4-cyclobutylpiperazin-1-yl)-2-oxoethyl]-2-(2-fluorophenyl)-4,5,6,7-tetrahydro[1,3]thiazolo [5,4-c]pyridine]
 | < 1000 | O=C(CN1CCc2nc(-c3ccc4ccccc4c3)sc2C1)N1CCN(C2CCC2)CC1 [Compound 300, 5-[2-(4-cyclobutylpiperazin-1-yl)-2-oxoethyl]-2-(2-naphthyl)-4,5,6,7-tetrahydro[1,3]thiazolo [5,4-c]pyridine]
 | < 1000 | Cc1ccc(-c2nc3c(s2)CN(CC(=O)N2CCN(C4CCC4)CC2)CC3)c(F)c1 [Compound 301, 5-[2-(4-cyclobutylpiperazin-1-yl)-2-oxoethyl]-2-(2-fluoro-4-methylphenyl)-4,5,6,7-tetrahydro[1,3]thiazolo [5,4-c]pyridine]
 | < 1000 | Cc1ccc(F)c(-c2nc3c(s2)CN(CC(=O)N2CCN(C4CCC4)CC2)CC3)c1 [Compound 302, 5-[2-(4-cyclobutylpiperazin-1-yl)-2-oxoethyl]-2-(2-fluoro-5-methylphenyl)-4,5,6,7-tetrahydro[1,3]thiazolo [5,4-c]pyridine]
 | < 1000 | Cc1cc(-c2nc3c(s2)CN(CC(=O)N2CCN(C4CCC4)CC2)CC3)ccc1F [Compound 303, 5-[2-(4-cyclobutylpiperazin-1-yl)-2-oxoethyl]-2-(4-fluoro-3-methylphenyl)-4,5,6,7-tetrahydro[1,3]thiazolo [5,4-c]pyridine]
 | < 1000 | Cc1cccc(-c2nc3c(s2)CN(CC(=O)N2CCN(C4CCC4)CC2)CC3)c1 [Compound 304, 5-[2-(4-cyclobutylpiperazin-1-yl)-2-oxoethyl]-2-(3-methylphenyl)-4,5,6,7-tetrahydro[1,3]thiazolo [5,4-c]pyridine]

From US20110082130A1 (LIGAND PHARMACEUTICALS, INC., priority 2006, published 2011)
